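Results reflect a 48-hour exposure of cells in 96-well plates to compound at five concentrations. GI50: concentration for 50% inhibition of growth. The concentration for full growth arrest is given as TGI.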
Legend:
Assay in all cases: NCI-60 cell line screen, 48 h
HOP-92 NSCLC = system: HOP-92 NSCLC
NCI-H23 lung = system: NCI-H23 lung
SF-539 CNS = system: SF-539 CNS
PC-3 prostate = system: PC-3 prostate
NCI-H226 lung = system: NCI-H226 lung
HOP-62 NSCLC = system: HOP-62 NSCLC
HCT-116 colon = system: HCT-116 colon
SW-620 colon = system: SW-620 colon
SNB-19 CNS = system: SNB-19 CNS
RPMI-8226 leukemia = system: RPMI-8226 leukemia
IGROV1 ovarian = system: IGROV1 ovarian
OVCAR-3 ovarian = system: OVCAR-3 ovarian
OVCAR-4 ovarian = system: OVCAR-4 ovarian
RXF 393 renal = system: RXF 393 renal
TK-10 renal = system: TK-10 renal
SK-MEL-2 melanoma = system: SK-MEL-2 melanoma
HL-60(TB) leukemia = system: HL-60(TB) leukemia
K-562 leukemia = system: K-562 leukemia
UACC-62 melanoma = system: UACC-62 melanoma
SK-MEL-5 melanoma = system: SK-MEL-5 melanoma
NCI/ADR-RES ovarian = system: NCI/ADR-RES ovarian
ACHN renal = system: ACHN renal
OVCAR-8 ovarian = system: OVCAR-8 ovarian
786-0 renal = system: 786-0 renal
U251 CNS = system: U251 CNS
COLO 205 colon = system: COLO 205 colon
CCRF-CEM leukemia = system: CCRF-CEM leukemia
SR leukemia = system: SR leukemia
HT29 colon = system: HT29 colon
MALME-3M melanoma = system: MALME-3M melanoma
SF-295 CNS = system: SF-295 CNS
BT-549 breast = system: BT-549 breast
A498 renal = system: A498 renal
HCT-15 colon = system: HCT-15 colon
DU-145 prostate = system: DU-145 prostate
KM12 colon = system: KM12 colon
CAKI-1 renal = system: CAKI-1 renal
A549 NSCLC = system: A549 NSCLC
SN12C renal = system: SN12C renal
HS 578T breast = system: HS 578T breast
M14 melanoma = system: M14 melanoma
T-47D breast = system: T-47D breast
MOLT-4 leukemia = system: MOLT-4 leukemia
OVCAR-5 ovarian = system: OVCAR-5 ovarian
HCC-2998 colon = system: HCC-2998 colon
UO-31 renal = system: UO-31 renal
NCI-H460 lung = system: NCI-H460 lung
MDA-MB-435 = system: MDA-MB-435
MCF7 breast = system: MCF7 breast
SK-OV-3 ovarian = system: SK-OV-3 ovarian
MDA-MB-231 breast = system: MDA-MB-231 breast
UACC-257 melanoma = system: UACC-257 melanoma
LOX IMVI melanoma = system: LOX IMVI melanoma
SNB-75 CNS = system: SNB-75 CNS
SF-268 CNS = system: SF-268 CNS
SK-MEL-28 melanoma = system: SK-MEL-28 melanoma
NCI-H522 lung = system: NCI-H522 lung

Structure (SMILES): CS(=O)(=O)Nc1ccc(Nc2c3ccccc3nc3cc([N+](=O)[O-])ccc23)cc1
- GI50 (HOP-92 NSCLC): 590 nM
- TGI (HOP-92 NSCLC): 3740 nM
- GI50 (NCI-H23 lung): 1690 nM
- TGI (NCI-H23 lung): 5470 nM
- GI50 (SF-539 CNS): 2230 nM
- TGI (SF-539 CNS): 13000 nM
- GI50 (PC-3 prostate): 1590 nM
- TGI (PC-3 prostate): 11800 nM
- GI50 (NCI-H226 lung): 1260 nM
- TGI (NCI-H226 lung): 6950 nM
- GI50 (HOP-62 NSCLC): 399 nM
- TGI (HOP-62 NSCLC): 3790 nM
- GI50 (HCT-116 colon): 1100 nM
- TGI (HCT-116 colon): 6160 nM
- GI50 (SW-620 colon): 1090 nM
- TGI (SW-620 colon): 6000 nM
- GI50 (SNB-19 CNS): 1610 nM
- TGI (SNB-19 CNS): 14900 nM
- GI50 (RPMI-8226 leukemia): 737 nM
- TGI (RPMI-8226 leukemia): 4310 nM
- GI50 (IGROV1 ovarian): 1630 nM
- TGI (IGROV1 ovarian): 5170 nM
- GI50 (OVCAR-3 ovarian): 2050 nM
- TGI (OVCAR-3 ovarian): 5870 nM
- GI50 (OVCAR-4 ovarian): 2900 nM
- TGI (OVCAR-4 ovarian): 10400 nM
- GI50 (RXF 393 renal): 1890 nM
- TGI (RXF 393 renal): 4860 nM
- GI50 (TK-10 renal): 3380 nM
- TGI (TK-10 renal): 11900 nM
- GI50 (SK-MEL-2 melanoma): 3460 nM
- TGI (SK-MEL-2 melanoma): 8850 nM
- GI50 (HL-60(TB) leukemia): 1690 nM
- TGI (HL-60(TB) leukemia): 5880 nM
- GI50 (K-562 leukemia): 1310 nM
- TGI (K-562 leukemia): 6960 nM
- GI50 (UACC-62 melanoma): 1320 nM
- TGI (UACC-62 melanoma): 6310 nM
- GI50 (SK-MEL-5 melanoma): 1100 nM
- TGI (SK-MEL-5 melanoma): 4370 nM
- GI50 (NCI/ADR-RES ovarian): 10000 nM
- TGI (NCI/ADR-RES ovarian): 26500 nM
- GI50 (ACHN renal): 1420 nM
- TGI (ACHN renal): 6740 nM
- GI50 (OVCAR-8 ovarian): 1950 nM
- TGI (OVCAR-8 ovarian): 9530 nM
- GI50 (786-0 renal): 1390 nM
- TGI (786-0 renal): 10600 nM
- GI50 (U251 CNS): 911 nM
- TGI (U251 CNS): 11300 nM
- GI50 (COLO 205 colon): 1430 nM
- TGI (COLO 205 colon): 6060 nM
- GI50 (CCRF-CEM leukemia): 352 nM
- TGI (CCRF-CEM leukemia): 2790 nM
- GI50 (SR leukemia): 83.7 nM
- TGI (SR leukemia): 3160 nM
- GI50 (HT29 colon): 2140 nM
- TGI (HT29 colon): 6130 nM
- GI50 (MALME-3M melanoma): 1440 nM
- TGI (MALME-3M melanoma): 4080 nM
- GI50 (SF-295 CNS): 1420 nM
- TGI (SF-295 CNS): 7770 nM
- GI50 (BT-549 breast): 2290 nM
- TGI (BT-549 breast): 9320 nM
- GI50 (A498 renal): 1280 nM
- TGI (A498 renal): 12500 nM
- GI50 (HCT-15 colon): 1380 nM
- TGI (HCT-15 colon): 4010 nM
- GI50 (DU-145 prostate): 296 nM
- TGI (DU-145 prostate): 6500 nM
- GI50 (KM12 colon): 854 nM
- TGI (KM12 colon): 3760 nM
- GI50 (CAKI-1 renal): 2010 nM
- TGI (CAKI-1 renal): 7430 nM
- GI50 (A549 NSCLC): 317 nM
- TGI (A549 NSCLC): 12000 nM
- GI50 (SN12C renal): 807 nM
- TGI (SN12C renal): 8430 nM
- GI50 (HS 578T breast): 2420 nM
- TGI (HS 578T breast): 13400 nM
- GI50 (M14 melanoma): 1420 nM
- TGI (M14 melanoma): 5810 nM
- GI50 (T-47D breast): 107 nM
- TGI (T-47D breast): 2230 nM
- GI50 (MOLT-4 leukemia): 235 nM
- TGI (MOLT-4 leukemia): 1190 nM
- GI50 (OVCAR-5 ovarian): 7940 nM
- TGI (OVCAR-5 ovarian): 23100 nM
- GI50 (HCC-2998 colon): 1620 nM
- TGI (HCC-2998 colon): 4240 nM
- GI50 (UO-31 renal): 2390 nM
- TGI (UO-31 renal): 13600 nM
- GI50 (NCI-H460 lung): 41 nM
- TGI (NCI-H460 lung): 2750 nM
- GI50 (MDA-MB-435): 3320 nM
- TGI (MDA-MB-435): 9060 nM
- GI50 (MCF7 breast): 51.1 nM
- TGI (MCF7 breast): 2720 nM
- GI50 (SK-OV-3 ovarian): 3500 nM
- TGI (SK-OV-3 ovarian): 15100 nM
- GI50 (MDA-MB-231 breast): 2100 nM
- TGI (MDA-MB-231 breast): 6100 nM
- GI50 (UACC-257 melanoma): 1820 nM
- TGI (UACC-257 melanoma): 6440 nM
- GI50 (LOX IMVI melanoma): 922 nM
- TGI (LOX IMVI melanoma): 2780 nM
- GI50 (SNB-75 CNS): 1720 nM
- TGI (SNB-75 CNS): 11800 nM
- GI50 (SF-268 CNS): 615 nM
- TGI (SF-268 CNS): 7030 nM
- GI50 (SK-MEL-28 melanoma): 2450 nM
- TGI (SK-MEL-28 melanoma): 7760 nM
- GI50 (NCI-H522 lung): 1270 nM
- TGI (NCI-H522 lung): 2800 nM

— PubChem BioAssay (NCI)
